Measurements: patent publication US9650390B2, “Water-soluble taxane derivatives and uses thereof” (priority 2014, dated 2017)
Where a name gives a salt, the structure may show the parent alone.

Legend:
[1] = In vitro dissociation in blood plasma of rat; assay type: in vitro ADME, SD rats; conditions: fresh SD rat plasma, 37° C.; for Sampling time/Dissociation percent (%) 2 min: 2 min incubation; for Sampling time/Dissociation percent (%) 5 min: 5 min incubation; for Sampling time/Dissociation percent (%) 10 min: 10 min incubation
Experimental: The obtained water soluble taxane derivatives of the following formulae were formulated as 0.2 mg/ml aqueous solutions. […] After 2 min, 5 min and 10 min of incubation, 0.2 ml of solutions were respectively taken from each of the samples, and added to acetonitrile (0.4 ml) cooled to −20° C. for precipitation of protein.

[2] = In vitro dissociation in blood plasma of rabbit; assay type: in vitro ADME, New Zealand white rabbits; conditions: fresh New Zealand white rabbit plasma, 37° C.
Experimental: The obtained water soluble taxane derivatives of the following formulae were formulated as 0.2 mg/ml aqueous solutions. […]

[3] = tested on: human prostate cancer PC-3; assay: Inhibitory activity of docetaxel derivatives on subcutaneously xenografted tumor PC-3 in nude mice; assay type: in vivo; conditions: 33.6 mg/kg, D0 IV; for Weight change (%) D6: nude mice; for T/C (%) D20 / Tumor volume (mm^3) (D20) / Tumor inhibitory percent (%) D20 / Tumor volume (mm^3) (D0): PC-3 xenograft in nude mice; for Tumor inhibitory percent (%) D20: P = 0.000 vs control; for Tumor volume (mm^3) (D0): baseline at grouping (D0)
Description: Purpose: to evaluate and compare the inhibitory activity of the water soluble docetaxel derivatives and docetaxel on subcutaneously xenografted tumor of human prostate cancer PC-3 in nude mice
Human prostate cancer PC-3 cells were subcutaneously inoculated into nude mice. After the tumor volume reached 100-150 mm^3, the animals were randomly divided into several groups, and administered with the water soluble docetaxel derivatives of the following formula and docetaxel, respectively once on the same day (D0). The tumor volume was measured 2-3 times per week, the animals were weighed and the data were recorded until day 20 (D20) after grouping.
The tumor volume (V) was calculated according to the equation: V=½×a×b^2, wherein a and b represent the length and the width, respectively.
T/C (%)=(T−T0)/(C−C0)×100, wherein T and C represent the tumor volume at the end of the experiment; and T0 and C0 represent the tumor volume at the beginning of the experiment.

Compound | Sampling time/Dissociation percent (%) 2 min [1] | Sampling time/Dissociation percent (%) 5 min [1] | Sampling time/Dissociation percent (%) 10 min [1] | Sampling time/Dissociation percent (%) 2 min [2] | Sampling time/Dissociation percent (%) 5 min [2] | Sampling time/Dissociation percent (%) 10 min [2] | Weight change (%) D6 [3] | T/C (%) D20 [3] | Tumor volume (mm^3) (D20) [3] | Tumor inhibitory percent (%) D20 [3] | Tumor volume (mm^3) (D0) [3]
2′-O-[4-(aziridin-1-yl)amino-2,2-difluoroheptanoyl]docetaxel methanesulfonate [Compound 14] | 42.1% | 55.7% | 72.5% |  |  |  |  |  |  |  | 
CCCCC(CC(F)(C(=O)OC(C(=O)OC1CC2(O)C(OC(=O)c3ccccc3)C3C4(OC(C)=O)COC4CC(O)C3(C)C(=O)C(OC(C)=O)C(=C1C)C2(C)C)C(NC(=O)c1ccccc1)c1ccccc1)C(F)(F)F)N(C)C1CCCC1.Cl (mixture of isomers) [Compound C15, 2′-O-[4-N-methyl-N-cyclopentylamino-2-trifluoromethyl-2-fluorooctanoyl]paclitaxel hydrochloride] | 34.2% | 45.3% | 58.2% |  |  |  |  |  |  |  | 
CO[C@H]1C(=O)[C@]2(C)[C@@H](OC)C[C@H]3OC[C@@]3(OC(C)=O)[C@H]2[C@H](OC(=O)c2ccccc2)[C@]2(O)C[C@H](OC(=O)[C@H](OC(=O)[C@H](F)CCN(C)C)[C@@H](NC(=O)OC(C)(C)C)c3ccccc3)C(C)=C1C2(C)C [Compound 07, 2′-O-[4-N,N-dimethylamino-2(R)-fluorobutyryl]cabazitaxel hydrochloride] | 49.5% | 89.6% | 100% | 79.2% | 95.5% | 100% |  |  |  |  | 
CO[C@H]1C(=O)[C@]2(C)[C@@H](OC)C[C@H]3OC[C@@]3(OC(C)=O)[C@H]2[C@H](OC(=O)c2ccccc2)[C@]2(O)C[C@H](OC(=O)[C@H](OC(=O)[C@@H](F)CCN(C)C)[C@@H](NC(=O)OC(C)(C)C)c3ccccc3)C(C)=C1C2(C)C.Cl [Compound 08, 2′-O-[4-N,N-dimethylamino-2(S)-fluorobutyryl]cabazitaxel hydrochloride] | 47.6% | 87.6% | 100% | 89.9% | 93.2% | 100% |  |  |  |  | 
COC1C(=O)C2(C)C(OC)CC3OCC3(OC(C)=O)C2C(OC(=O)c2ccccc2)C2(O)CC(OC(=O)C(OC(=O)C(F)CCN(C)C)C(NC(=O)OC(C)(C)C)c3ccccc3)C(C)=C1C2(C)C.Cl [Compound 09, 2′-O-[4-N,N-dimethylamino-2(R,S)-fluorobutyryl]cabazitaxel hydrochloride] | 47.8% | 89.1% | 100% | 83.2% | 97.1% | 100% |  |  |  |  | 
COC1C(=O)C2(C)C(OC)CC3OCC3(OC(C)=O)C2C(OC(=O)c2ccccc2)C2(O)CC(OC(=O)C(OC(=O)C(CCN)C(F)F)C(NC(=O)OC(C)(C)C)c3ccccc3)C(C)=C1C2(C)C.O=S(=O)([O-])O.[Na+] [Compound 10, 2′-O-[4-amino-2(R)-difluoromethylbutyryl]cabazitaxel sodium bisulfate salt] | 45.2% | 86.5% | 96.8% | 38.1% | 63.2% | 80.3% |  |  |  |  | 
CCN(CC)CC[C@](C)(C(=O)O[C@@H](C(=O)O[C@H]1C[C@@]2(O)[C@@H](OC(=O)c3ccccc3)[C@@H]3[C@]4(OC(C)=O)CO[C@@H]4C[C@H](OC)[C@@]3(C)C(=O)[C@H](OC)C(=C1C)C2(C)C)[C@@H](NC(=O)OC(C)(C)C)c1ccccc1)C(F)(F)F.CS(=O)(=O)O [Compound 11, 2′-O-[4-N,N-diethylamino-2-methyl-2(R)-2-trifluoromethylbutyryl]cabazitaxel methanesulfonate] | 52.3% | 89.6% | 97.2% | 56.2% | 80.5% | 92.1% |  |  |  |  | 
CCN(C)C(C)C[C@H](CC(F)F)C(=O)O[C@@H](C(=O)O[C@H]1C[C@@]2(O)[C@@H](OC(=O)c3ccccc3)[C@@H]3[C@]4(OC(C)=O)CO[C@@H]4C[C@H](O)[C@@]3(C)C(=O)[C@H](O)C(=C1C)C2(C)C)[C@@H](NC(=O)OC(C)(C)C)c1ccccc1.Cl (stereo partly drawn) [Compound 12, 2′-O-[4-N-methyl-N-ethylamino-2(R)-2-difluoroethylvaleryl]docetaxel hydrochloride] | 43.6% | 75.6% | 89.6% | 35.2% | 61.3% | 73.2% |  |  |  |  | 
CO[C@H]1C(=O)[C@]2(C)[C@@H](OC)C[C@H]3OC[C@@]3(OC(C)=O)[C@H]2[C@H](OC(=O)c2ccccc2)[C@]2(O)C[C@H](OC(=O)[C@H](OC(=O)[C@@H](CCN)C(F)F)[C@@H](NC(=O)OC(C)(C)C)c3ccccc3)C(C)=C1C2(C)C.O=S(=O)(O)O [Compound C10, 2′-O-[4-amino-2(R)-difluoromethylbutyryl]cabazitaxel sulfate] | 45.6% | 87.1% | 97.3% | 48.9% | 68.4% | 91.3% |  |  |  |  | 
CCN(CC)CC[C@](C)(C(=O)O[C@@H](C(=O)O[C@H]1C[C@@]2(O)[C@@H](OC(=O)c3ccccc3)[C@@H]3[C@]4(OC(C)=O)CO[C@@H]4C[C@H](OC)[C@@]3(C)C(=O)[C@H](OC)C(=C1C)C2(C)C)[C@@H](NC(=O)OC(C)(C)C)c1ccccc1)C(F)(F)F.Cl [Compound C11, 2′-O-[4-N,N-diethylamino-2-methyl-2(R)-2-trifluoromethylbutyryl]cabazitaxel hydrochloride] | 51.2% | 88.4% | 95.9% | 61.2% | 84.5% | 96.3% |  |  |  |  | 
CCCC(CC(F)(F)C(=O)O[C@@H](C(=O)O[C@H]1C[C@@]2(O)[C@@H](OC(=O)c3ccccc3)[C@@H]3[C@]4(OC(C)=O)CO[C@@H]4C[C@H](O)[C@@]3(C)C(=O)[C@H](O)C(=C1C)C2(C)C)[C@@H](NC(=O)OC(C)(C)C)c1ccccc1)N1CC1.Cl (stereo partly shown) [Compound C14, 2′-O-[4-(aziridin-1-yl)amino-2,2-difluoroheptanoyl]docetaxel hydrochloride] | 41.9% | 54.4% | 71.3% |  |  |  |  |  |  |  | 
CCN(C)CCC(F)C(=O)OC(C(=O)OC1CC2(O)C(OC(=O)c3ccccc3)C3C4(OC(C)=O)COC4CC(O)C3(C)C(=O)C(O)C(=C1C)C2(C)C)C(NC(=O)OC(C)(C)C)c1ccccc1.CS(=O)(=O)O [Compound C25, 2′-O-[4-N-methyl-N-ethylamino-2(R)-fluorobutyryl]docetaxel methanesulfonate] |  |  |  |  |  |  | −13.6% | −62% | 30.4 ± 11.1 mm^3 | 143% | 113.8 ± 3.0 mm^3
CCN(CC)CCC(F)C(=O)OC(C(=O)OC1CC2(O)C(OC(=O)c3ccccc3)C3C4(OC(C)=O)COC4CC(O)C3(C)C(=O)C(O)C(=C1C)C2(C)C)C(NC(=O)OC(C)(C)C)c1ccccc1.O=C(O)C=CC(=O)O [Compound C26, 2′-O-[4-N,N-diethylamino-2(S)-fluorobutyryl]docetaxel maleate] |  |  |  |  |  |  | −14.1% | −52% | 32.4 ± 13.5 mm^3 | 120% | 114.4 ± 2.8 mm^3
